Measured values published in patent US12036312B2, “Non-aqueous topical compositions comprising a halogenated salicylanilide” (priority 2016, dated 2024).
Converted amounts (≈) assume the structure as drawn.

Tested on: S. aureus
Assay: MIC assay according to CLSI criteria, Example 2, S. aureus strains
Assay type: cell-based, Staphylococcus aureus
Conditions: Staphylococcus aureus
Text: Chosen for its relevance regarding bacterial skin infections, the methicillin-resistant S. aureus (MRSA) 01 strain was used as the primary test microorganism. This strain is a community-acquired MRSA clinical isolate of USA 300 type, from a skin abscess.
Two-hundred-four other MRSA and methicillin-sensitive S. aureus strains, and 4 Streptococcus pyogenes strains, were also included in the study. These covered fusidic acid- and mupirocin-resistant strains, these two types of resistance being of clinical relevance.
Strains were conserved in Luria Bertani (LB) Broth (S. aureus) or Brain Heart Infusion (BHI) (S. pyogenes) supplemented with glycerol 15% (v/v) at −80° C., and reactivated by isolation on LB (S. aureus) or BHI (S. pyogenes) agar plates. Strains were cultivated in Mueller Hinton (MH) Broth-cation adjusted (S. aureus) or BHI (S. pyogenes). All strains were cultivated aerobically (microaerobically for S. pyogenes strains) at 37° C.
Bacterial cultures were stopped in their exponential growth phase and plates were inoculated with the approximate concentration of 5×10^5 cells per well. Plates were incubated at 37° C. for 18 hours (S. aureus) or 24 hours (S. pyogenes). Optical density at a wavelength of 600 nm was measured at the end of the incubation time.

## CN[C@H](CC(C)C)C(=O)N[C@H]1C(=O)N[C@@H](CC(N)=O)C(=O)N[C@H]2C(=O)N[C@H]3C(=O)N[C@H](C(=O)N[C@H](C(=O)O)c4cc(O)cc(O)c4-c4cc3ccc4O)[C@H](O)c3ccc(c(Cl)c3)Oc3cc2cc(c3O[C@@H]2O[C@H](CO)[C@@H](O)[C@H](O)[C@H]2O[C@H]2C[C@](C)(N)[C@H](O)[C@H](C)O2)Oc2ccc(cc2Cl)[C@H]1O [Vancomycin, vancomycin]
ATCC29213, strain ATCC 29213
  MIC: 1 µg/mL (≈ 0.69 µM)
MRSA, strain MRSA 01
  MIC: 1 µg/mL (≈ 0.69 µM)
MRSA, strain MRSA 02
  MIC: 2 µg/mL (≈ 1.38 µM)
MRSA, strain MRSA 03
  MIC: 1 µg/mL (≈ 0.69 µM)
MRSA, strain MRSA 04
  MIC: 2 µg/mL (≈ 1.38 µM)
MRSA, strain MRSA 05
  MIC: 1 µg/mL (≈ 0.69 µM)
MRSA, strain MRSA 06
  MIC: 2 µg/mL (≈ 1.38 µM)
MRSA, strain MRSA 07
  MIC: 1 µg/mL (≈ 0.69 µM)
MRSA, strain MRSA 08
  MIC: 1 µg/mL (≈ 0.69 µM)
MRSA, strain MRSA 09
  MIC: 2 µg/mL (≈ 1.38 µM)
MRSA, strain MRSA 10
  MIC: 1 µg/mL (≈ 0.69 µM)
MRSA, strain MRSA 11
  MIC: 1 µg/mL (≈ 0.69 µM)
MRSA, strain MRSA 13
  MIC: 1 µg/mL (≈ 0.69 µM)
MRSA, strain MRSA 14
  MIC: 1 µg/mL (≈ 0.69 µM)
MRSA, strain MRSA 15
  MIC: 2 µg/mL (≈ 1.38 µM)
MRSA, strain MRSA 16
  MIC: 1 µg/mL (≈ 0.69 µM)
MRSA, strain MRSA 17
  MIC: 2 µg/mL (≈ 1.38 µM)
MRSA, strain MRSA 18
  MIC: 1 µg/mL (≈ 0.69 µM)
MRSA, strain MRSA 19
  MIC: 1 µg/mL (≈ 0.69 µM)
MRSA, strain MRSA 20
  MIC: 1 µg/mL (≈ 0.69 µM)
MRSA, strain MRSA 21
  MIC: 1 µg/mL (≈ 0.69 µM)
MRSA, strain MRSA 22
  MIC: 0.5 µg/mL (≈ 0.345 µM)
MRSA, strain MRSA 23
  MIC: 1 µg/mL (≈ 0.69 µM)
MRSA, strain MRSA 24
  MIC: 2 µg/mL (≈ 1.38 µM)
MRSA, strain MRSA 25
  MIC: 1 µg/mL (≈ 0.69 µM)
MRSA, strain MRSA 26
  MIC: 1 µg/mL (≈ 0.69 µM)
MRSA, strain MRSA 27
  MIC: 1 µg/mL (≈ 0.69 µM)
MRSA, strain MRSA 27b
  MIC: 1 µg/mL (≈ 0.69 µM)
MRSA, strain MRSA 28
  MIC: 1 µg/mL (≈ 0.69 µM)
MRSA, strain MRSA 29
  MIC: 1 µg/mL (≈ 0.69 µM)
MRSA, strain MRSA 30
  MIC: 1 µg/mL (≈ 0.69 µM)
MRSA, strain MRSA 31
  MIC: 1 µg/mL (≈ 0.69 µM)
MRSA, strain MRSA 32
  MIC: 1 µg/mL (≈ 0.69 µM)
MRSA, strain MRSA 33
  MIC: 1 µg/mL (≈ 0.69 µM)
MRSA, strain MRSA 34
  MIC: 1 µg/mL (≈ 0.69 µM)
MRSA, strain MRSA 35
  MIC: 1 µg/mL (≈ 0.69 µM)
MRSA, strain MRSA 36
  MIC: 1 µg/mL (≈ 0.69 µM)
MRSA, strain MRSA 37
  MIC: 1 µg/mL (≈ 0.69 µM)
MRSA, strain MRSA 38
  MIC: 1 µg/mL (≈ 0.69 µM)
MRSA, strain MRSA 39
  MIC: 1 µg/mL (≈ 0.69 µM)
MRSA, strain MRSA 40
  MIC: 1 µg/mL (≈ 0.69 µM)
MRSA, strain MRSA 41
  MIC: 1 µg/mL (≈ 0.69 µM)
MRSA, strain MRSA 42
  MIC: 1 µg/mL (≈ 0.69 µM)
MRSA, strain MRSA 43
  MIC: 1 µg/mL (≈ 0.69 µM)
MRSA, strain MRSA 44
  MIC: 1 µg/mL (≈ 0.69 µM)
MRSA, strain MRSA 45
  MIC: 1 µg/mL (≈ 0.69 µM)
MRSA, strain MRSA 46
  MIC: 1 µg/mL (≈ 0.69 µM)
MRSA, strain MRSA 47
  MIC: 0.5 µg/mL (≈ 0.345 µM)
MRSA, strain MRSA 48
  MIC: 0.5 µg/mL (≈ 0.345 µM)
MRSA, strain MRSA 49
  MIC: 2 µg/mL (≈ 1.38 µM)
MRSA, strain MRSA 50
  MIC: 1 µg/mL (≈ 0.69 µM)
MRSA, strain MRSA 51
  MIC: 1 µg/mL (≈ 0.69 µM)
MRSA, strain MRSA 52
  MIC: 1 µg/mL (≈ 0.69 µM)
MRSA, strain MRSA 53
  MIC: 1 µg/mL (≈ 0.69 µM)
MRSA, strain MRSA 54
  MIC: 2 µg/mL (≈ 1.38 µM)
MRSA, strain MRSA 55
  MIC: 0.5 µg/mL (≈ 0.345 µM)
MRSA, strain MRSA 56
  MIC: 1 µg/mL (≈ 0.69 µM)
MRSA, strain MRSA 57
  MIC: 1 µg/mL (≈ 0.69 µM)
MRSA, strain MRSA 58
  MIC: 1 µg/mL (≈ 0.69 µM)
MRSA, strain MRSA 59
  MIC: 1 µg/mL (≈ 0.69 µM)
MRSA, strain MRSA 60
  MIC: 0.5 µg/mL (≈ 0.345 µM)
MRSA, strain MRSA 61
  MIC: 2 µg/mL (≈ 1.38 µM)
MRSA, strain MRSA 62
  MIC: 2 µg/mL (≈ 1.38 µM)
MRSA, strain MRSA 63
  MIC: 1 µg/mL (≈ 0.69 µM)
MRSA, strain MRSA 64
  MIC: 1 µg/mL (≈ 0.69 µM)
MRSA, strain MRSA 65
  MIC: 1 µg/mL (≈ 0.69 µM)
MRSA, strain MRSA 66
  MIC: 1 µg/mL (≈ 0.69 µM)
MRSA, strain MRSA 67
  MIC: 1 µg/mL (≈ 0.69 µM)
MRSA, strain MRSA 68
  MIC: 1 µg/mL (≈ 0.69 µM)
MRSA, strain MRSA 69
  MIC: 1 µg/mL (≈ 0.69 µM)
MRSA, strain MRSA 70
  MIC: 1 µg/mL (≈ 0.69 µM)
MRSA, strain MRSA 71
  MIC: 1 µg/mL (≈ 0.69 µM)
MRSA, strain MRSA 72
  MIC: 1 µg/mL (≈ 0.69 µM)
MRSA, strain MRSA 73
  MIC: 1 µg/mL (≈ 0.69 µM)
MRSA, strain MRSA 74
  MIC: 1 µg/mL (≈ 0.69 µM)
MRSA, strain MRSA 75
  MIC: 1 µg/mL (≈ 0.69 µM)
MRSA, strain MRSA 76
  MIC: 1 µg/mL (≈ 0.69 µM)
MRSA, strain MRSA 77
  MIC: 2 µg/mL (≈ 1.38 µM)
MRSA, strain MRSA 78
  MIC: 1 µg/mL (≈ 0.69 µM)
MRSA, strain MRSA 79
  MIC: 1 µg/mL (≈ 0.69 µM)
MRSA, strain MRSA 80
  MIC: 1 µg/mL (≈ 0.69 µM)
MRSA, strain MRSA 81
  MIC: 1 µg/mL (≈ 0.69 µM)
MRSA, strain MRSA 82
  MIC: 2 µg/mL (≈ 1.38 µM)
MRSA, strain MRSA 83
  MIC: 1 µg/mL (≈ 0.69 µM)
MRSA, strain MRSA 84
  MIC: 2 µg/mL (≈ 1.38 µM)
MRSA, strain MRSA 85
  MIC: 1 µg/mL (≈ 0.69 µM)
MRSA, strain MRSA 86
  MIC: 2 µg/mL (≈ 1.38 µM)
MRSA, strain MRSA 87
  MIC: 1 µg/mL (≈ 0.69 µM)
MRSA, strain MRSA 88
  MIC: 1 µg/mL (≈ 0.69 µM)
MRSA, strain MRSA 89
  MIC: 1 µg/mL (≈ 0.69 µM)
MRSA, strain MRSA 90
  MIC: 1 µg/mL (≈ 0.69 µM)
MRSA, strain MRSA 91
  MIC: 1 µg/mL (≈ 0.69 µM)
MRSA, strain MRSA 92
  MIC: 1 µg/mL (≈ 0.69 µM)
MRSA, strain MRSA 93
  MIC: 2 µg/mL (≈ 1.38 µM)
MRSA, strain MRSA 94
  MIC: 2 µg/mL (≈ 1.38 µM)
MRSA, strain MRSA 95
  MIC: 2 µg/mL (≈ 1.38 µM)
MRSA, strain MRSA 96
  MIC: 1 µg/mL (≈ 0.69 µM)
MRSA, strain MRSA 97
  MIC: 1 µg/mL (≈ 0.69 µM)
MRSA, strain MRSA 98
  MIC: 1 µg/mL (≈ 0.69 µM)
MRSA, strain MRSA 99
  MIC: 1 µg/mL (≈ 0.69 µM)
MRSA, strain MRSA 100
  MIC: 1 µg/mL (≈ 0.69 µM)
MRSA, strain MRSA 101
  MIC: 1 µg/mL (≈ 0.69 µM)
